Patent US6407103B2, “Indeno [1,2-c] pyrazol-4-ones and their uses” (Bristol-Myers Squibb Pharma Company, priority 1998, dated 2002)
Where a name gives a salt, the structure may show the parent alone.

melting point | SMILES
253 °C | CCc1[nH]nc2c1C(=O)c1c(NC(=O)NN3CCOCC3)cccc1-2 (as salt: TFA) [Example CCLIX, 3-ethyl-5-(morpholinocarbamoylamino)indeno[1,2-c]pyrazol-4-one]
244 °C | CCc1[nH]nc2c1C(=O)c1c(NC(=O)NN3CCN(C)CC3)cccc1-2 (as salt: TFA) [Example CCLVI, 3-ethyl-5-(4-methylpiperazinocarbamoylamino)indeno[1,2-c]pyrazol-4-one]
206 °C | CCOC(=O)N1CCC(c2[nH]nc3c2C(=O)c2c(NC(=O)NN4CCOCC4)cccc2-3)CC1 (as salt: TFA) [Example CCLXII, 3-(1-ethoxycarbonylpiperidin-4-yl)-5-(morpholinocarbamoylamino)indeno[1,2-c]pyrazol-4-one]
202 °C | O=C(Nc1cccc2c1C(=O)c1c-2n[nH]c1C1CCN(C(=O)n2ccnc2)CC1)NN1CCOCC1 (as salt: TFA) [Example CCLXIV, 3-(1-(imidazol-1-ylcarbonyl)piperidin-4-yl)-5-(morpholinocarbamoylamino)indeno[1,2-c]pyrazol-4-one]
172 °C | CN(C)C1CCN(C(=O)N2CCC(c3[nH]nc4c3C(=O)c3c(NC(=O)NN5CCOCC5)cccc3-4)CC2)CC1 (as salt: TFA) [Example CCLXIX, 3-(1-(4-(dimethylamino)piperidinocarbonyl)piperidin-4-yl)-5-(morpholinocarbamoylamino)indeno[1,2-c]pyrazol-4-one]
218 °C | O=C(Nc1cccc2c1C(=O)c1c-2n[nH]c1C1CCN(C(=O)c2cccs2)CC1)NN1CCOCC1 (as salt: TFA) [Example CCLXV, 3-(1-(2-thienylcarbonyl)piperidin-4-yl)-5-(morpholinocarbamoylamino)indeno[1,2-c]pyrazol-4-one]
258 °C | NC(=O)N1CCC(c2[nH]nc3c2C(=O)c2c(NC(=O)NN4CCOCC4)cccc2-3)CC1 (as salt: TFA) [Example CCLXVI, 3-(1-carbamoylpiperidin-4-yl)-5-(morpholinocarbamoylamino)indeno[1,2-c]pyrazol-4-one]
195 °C | O=C(Nc1cccc2c1C(=O)c1c-2n[nH]c1C1CCN(C(=O)N2CCNCC2)CC1)NN1CCOCC1 (as salt: TFA) [Example CCLXX, 3-(1-(piperazinocarbonyl)piperidin-4-yl)-5-(morpholinocarbamoylamino)indeno[1,2-c]pyrazol-4-one]
196 °C | O=C(Nc1cccc2c1C(=O)c1c-2n[nH]c1C1CCN(C(=O)N2C[C@@H]3C[C@H]2CN3)CC1)NN1CCOCC1 (as salt: TFA) [Example CCLXXII, 3-(1-(((1S,4S)-(+)-2,5-diazabicyclo[2.2.1]hept-2-yl)carbonyl)piperidin-4-yl)-5-(morpholinocarbamoylamino)indeno[1,2-c]pyrazol-4-one]
225 °C | CN1C[C@@H]2C[C@H]1CN2C(=O)N1CCC(c2[nH]nc3c2C(=O)c2c(NC(=O)NN4CCOCC4)cccc2-3)CC1 (as salt: TFA) [Example CCLXXIII, 3-(1-(((1S,4S)-(+)-5-methyl-2,5-diazabicyclo[2.2.1]hept-2-yl)carbonyl)piperidin-4-yl)-5-(morpholinocarbamoylamino)indeno[1,2-c]pyrazol-4-one]
103 °C | NCCCCC(=O)N1CCC(c2[nH]nc3c2C(=O)c2c(NC(=O)NN4CCOCC4)cccc2-3)CC1 (as salt: TFA) [Example CCLXXVII, 3-(1-(4-aminobutylcarbonyl)piperidin-4-yl)-5-(morpholinocarbamoylamino)indeno[1,2-c]pyrazol-4-one]
68 °C | CN(C)CCCCC(=O)N1CCC(c2[nH]nc3c2C(=O)c2c(NC(=O)NN4CCOCC4)cccc2-3)CC1 (as salt: TFA) [Example CCLXXVIII, 3-(1-(4-(dimethylamino)butylcarbonyl)piperidin-4-yl)-5-(morpholinocarbamoylamino)indeno[1,2-c]pyrazol-4-one]
148 °C | CN1CCC(C(=O)N2CCC(c3[nH]nc4c3C(=O)c3c(NC(=O)NN5CCOCC5)cccc3-4)CC2)CC1 (as salt: TFA) [Example CCLXXX, 3-(1-((1-methylpiperidin-4-yl)carbonyl)piperidin-4-yl)-5-(morpholinocarbamoylamino)indeno[1,2-c]pyrazol-4-one]
212 °C | N[C@H]1CC[C@@H](C(=O)N2CCC(c3[nH]nc4c3C(=O)c3c(NC(=O)NN5CCOCC5)cccc3-4)CC2)CC1 (as salt: TFA) [Example CCLXXXII, 3-(1-(cis-4-aminocyclohexylcarbonyl)piperidin-4-yl)-5-(morpholinocarbamoylamino)indeno[1,2-c]pyrazol-4-one]
202 °C | NC1CCC(C(=O)N2CCC(c3[nH]nc4c3C(=O)c3c(NC(=O)NN5CCOCC5)cccc3-4)CC2)CC1 (stereo not shown) (as salt: TFA) [Example CCLXXXIII, 3-(1-(4-aminocyclohexylcarbonyl)piperidin-4-yl)-5-(morpholinocarbamoylamino)indeno[1,2-c]pyrazol-4-one]

The next lines start with the compound.

SMILES | melting point
O=C(Nc1cccc2c1C(=O)c1c-2n[nH]c1C1CCN(C(=O)Oc2ccccc2)CC1)NN1CCOCC1 (as salt: TFA) | 250 °C
O=C(Nc1cccc2c1C(=O)c1c-2n[nH]c1-c1ccc(C(=O)NC2CN3CCC2CC3)s1)NN1CCOCC1 (stereo not shown) (as salt: TFA) | 245 °C
O=C(Nc1cccc2c1C(=O)c1c-2n[nH]c1[C@H]1CC[C@H](C(=O)O)CC1)NN1CCOCC1 (as salt: TFA) [Example CCC, 3-(trans-4-carboxylcyclohexyl)-5-(morpholinocarbamoylamino)indeno[1,2-c]pyrazol-4-one] | 264 °C
COC(=O)[C@H]1CC[C@H](c2[nH]nc3c2C(=O)c2c(NC(=O)NN4CCOCC4)cccc2-3)CC1 (as salt: TFA) [Example CCCI, 3-(trans-4-(methoxycarbonyl)cyclohexyl)-5-(morpholinocarbamoylamino)indeno[1,2-c]pyrazol-4-one] | 259 °C
CN(C)C1CCN(C(=O)[C@H]2CC[C@H](c3[nH]nc4c3C(=O)c3c(NC(=O)NN5CCOCC5)cccc3-4)CC2)C1 (stereo partly drawn) (as salt: TFA) [Example CCCII, 3-(trans-4-(3-(dimethylamino)pyrrolidinocarbonyl)cyclohexyl)-5-(morpholinocarbamoylamino)indeno[1,2-c]pyrazol-4-one] | 191 °C
O=C(Nc1cccc2c1C(=O)c1c-2n[nH]c1[C@H]1CC[C@H](C(=O)N2CCNCC2)CC1)NN1CCOCC1 (as salt: TFA) [Example CCCIII, 3-(trans-4-(piperazinocarbonyl)cyclohexyl)-5-(morpholinocarbamoylamino)indeno[1,2-c]pyrazol-4-one] | 248 °C
CN1CCN(C(=O)[C@H]2CC[C@H](c3[nH]nc4c3C(=O)c3c(NC(=O)NN5CCOCC5)cccc3-4)CC2)CC1 (as salt: TFA) [Example CCCIV, 3-(trans-4-(4-methylpiperazinocarbonyl)cyclohexyl)-5-(morpholinocarbamoylamino)indeno[1,2-c]pyrazol-4-one] | 228 °C
COC[C@H]1CCCN1NC(=O)Nc1cccc2c1C(=O)c1c-2n[nH]c1-c1ccc(C(=O)O)s1 (as salt: TFA) [Example CCII, 3-(5-carboxyl-2-thienyl)-5-(2(R)-(methoxymethyl)pyrrolidinocarbamoylamino)indeno[1,2-c]pyrazol-4-one] | 258 °C
COC[C@H]1CCCN1NC(=O)Nc1cccc2c1C(=O)c1c-2n[nH]c1-c1ccc(C(=O)N2CCN(C)CC2)s1 (as salt: TFA) [Example CCIII, 3-(5-(4-methylpiperazinocarbonyl)-2-thienyl)-5-(2(R)-(methoxymethyl)pyrrolidinocarbamoylamino)indeno[1,2-c]pyrazol-4-one] | 181 °C
COC[C@H]1CCCN1NC(=O)Nc1cccc2c1C(=O)c1c-2n[nH]c1-c1ccc(C(=O)N2CCNCC2)s1 (as salt: TFA) [Example CCIV, 3-(5-piperazinocarbonyl-2-thienyl)-5-(2(R)-(methoxymethyl)pyrrolidinocarbamoylamino)indeno[1,2-c]pyrazol-4-one] | > 300 °C
O=C(Nc1cccc2c1C(=O)c1c-2n[nH]c1-c1ccc(N2CCC(N3CCCCC3)CC2)cc1)NN1CCOCC1 (as salt: TFA) [Example CCL, 3-(4-(4-piperidinopiperidino)phenyl)-5-(morpholinocarbamoylamino)indeno[1,2-c]pyrazol-4-one] | 233 °C
O=C(Nc1cccc2c1C(=O)c1c-2n[nH]c1-c1ccc(N2CCC(N3CCCC3)CC2)cc1)NN1CCOCC1 (as salt: TFA) [Example CCLI, 3-(4-(4-pyrrolidinopiperidino)phenyl)-5-(morpholinocarbamoylamino)indeno[1,2-c]pyrazol-4-one] | 247 °C
CCN(CC)C1CCN(c2ccc(-c3[nH]nc4c3C(=O)c3c(NC(=O)NN5CCOCC5)cccc3-4)cc2)CC1 (as salt: TFA) [Example CCLII, 3-(4-(4-(N,N-diethylamino)piperidino)phenyl)-5-(morpholinocarbamoylamino)indeno[1,2-c]pyrazol-4-one] | 251 °C
CC(=N)N1CCN(c2ccc(-c3[nH]nc4c3C(=O)c3c(NC(=O)NN5CCOCC5)cccc3-4)cc2)CC1 (as salt: TFA) [Example CCLIII, 3-(4-(4-(1-iminoethyl)piperazino)phenyl)-5-(morpholinocarbamoylamino)indeno[1,2-c]pyrazol-4-one] | 240 °C
CC(C)(C)OC(=O)N1CCN(C(=O)N2CCC(c3[nH]nc4c3C(=O)c3c(NC(=O)NN5CCOCC5)cccc3-4)CC2)CC1 (as salt: TFA) [Example CCLXXI, 3-(1-(4-(t-butoxycarbonyl)piperazinocarbonyl)piperidin-4-yl)-5-(morpholinocarbamoylamino)indeno[1,2-c]pyrazol-4-one] | 231 °C
CC(C)(C)OC(=O)NCCCCC(=O)N1CCC(c2[nH]nc3c2C(=O)c2c(NC(=O)NN4CCOCC4)cccc2-3)CC1 (as salt: TFA) [Example CCLXXIX, 3-(1-(4-(t-butoxycarbonylamino)butylcarbonyl)piperidin-4-yl)-5-(morpholinocarbamoylamino)indeno[1,2-c]pyrazol-4-one] | 98 °C
